In patent US12421271B2, “Solid forms of (2S,3S,4S,5R,6S)-3,4,5-trihydroxy-6-(((4AR, 10AR)-7-hydroxy-1-propyl-1,2,3,4,4A,5,10,10A-octahydrobenzo[g]quinolin-6-yl)oxy)tetrahydro-2H-pyran-2-carboxylic acid” (H. Lundbeck A/S, priority 2019, dated 2025):
Like-named read-outs stand apart in the source and are kept apart here.

What was measured:
[1] = PK experiments in Wistar rats, plasma compound (I) after oral dosing of prodrugs; assay type: in vivo, rat; conditions: FIG. 1, doses equal to 287 μg/kg of compound (I)
Experimental: Plasma was placed on water-ice following collection. Final storage at approximately −70° C.
Mobile phase B: Acetonitrile. […] Flow rate 0.5 mL/min.
The rats had unrestricted access to the diet.
Mobile phase B: Acetonitrile+0.2% formic acid. […] Flow rate 0.3 mL/min.
Dosing and blood sampling for compound (Ic): Han Wistar rats were supplied by Envigo, UK. […] The rats received a standard laboratory diet Teklad 2014C. The rats had unrestricted access to the diet.

[2] = biological target: T1, human 5-HT2B receptor (Homo sapiens, UniProt P41595); test: 5-HT2B agonist activity assay, IP1 production (HTRF) in CHO cells; assay type: cell-based
T1 construct: host or cells: CHO
T1 sequence (P41595 whole entry): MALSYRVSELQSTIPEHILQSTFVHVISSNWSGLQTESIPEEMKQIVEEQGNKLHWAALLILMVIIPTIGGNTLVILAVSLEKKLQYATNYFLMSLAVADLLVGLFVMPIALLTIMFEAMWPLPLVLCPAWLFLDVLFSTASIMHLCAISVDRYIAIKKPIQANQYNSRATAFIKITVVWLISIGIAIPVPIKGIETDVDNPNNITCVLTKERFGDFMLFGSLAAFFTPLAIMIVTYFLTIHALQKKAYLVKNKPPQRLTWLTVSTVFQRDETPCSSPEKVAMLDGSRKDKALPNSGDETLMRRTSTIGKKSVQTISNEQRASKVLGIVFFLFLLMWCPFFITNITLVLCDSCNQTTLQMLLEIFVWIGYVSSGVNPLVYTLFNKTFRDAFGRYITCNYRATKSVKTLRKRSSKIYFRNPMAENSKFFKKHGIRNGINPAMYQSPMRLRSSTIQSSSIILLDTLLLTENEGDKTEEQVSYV
Experimental: Evaluation of the agonist activity of compounds (I), (Ia) and (Ib) at the human 5-HT2B receptor was performed by Eurofins/Cerep (France) measuring the compound effects on inositol monophosphate (IP1) production using the HTRF detection method. Briefly, the human 5-HT2B receptor was expressed in transfected CHO cells. The cells were suspended in a buffer containing 10 mM Hepes/NaOH (pH 7.4), 4.2 mM KCl, 146 mM NaCl, 1 mM CaCl2, 0.5 mM MgCl2, 5.5 mM glucose and 50 mM LiCl, then distributed in microplates at a density of 4100 cells/well and incubated for 30 minutes at 37° C. in the presence of buffer (basal control), test compound or reference agonist. For stimulated control measurement, separate assay wells contained 1 μM 5-HT. Following incubation, the cells were lysed and the fluorescence acceptor (fluorophen D2-labeled IP1) and fluorescence donor (anti-IP1 antibody labeled with europium cryptate) were added. After 60 minutes at room temperature, the fluorescence transfer was measured at lambda(Ex) 337 nm and lambda(Em) 620 and 665 nm using a microplate reader (Rubystar, BMG). The IP1 concentration was determined by dividing the signal measured at 665 nm by that measured at 620 nm (ratio). The results were expressed as a percent of the control response to 1 μM 5-HT. […]

[3] = Liu et al., Bioorganic Med. Chem. (2008); rats; cited from earlier work
[4] = man, after oral dosing; cited from earlier work
[5] = Conversion of (Id) to (I) in fresh human blood; assay type: in vitro ADME; conditions: 1 μg/mL, 37° C., 0-60 minutes
Experimental: (§1) Conversion of (Id) in human blood (average of 3 donors) and rat blood (average of 45 donors) to (I) was shown in fresh blood at 37° C. spiked with 1 μg/mL of (Id). (I) was measured at 0, 5, 15, 30 and 60 minutes in isolated plasma. Analysis method and Instrumentation as described in Examples 9 and 10 below in the section “Instrumentation used for analysis of compound (l) from dosing of compounds (Ic) and (Id).”

[6] = tested on: rat locomotor activity; test: Rat locomotor activity (hyperactivity) assay, open field, with PK/PD; assay type: in vivo
Experimental: Mass spectrometer (UPCLC-MS/MS) Waters Acquity I-Class-Waters Xevo TQ-S. Analytical column Acquity HSS T3 C18 50×2.1 mm, 1.8 μm. Mobile phase A: 10 mM NH4—Formate 0.2% formic acid:Acetonitril (95:5). Mobile phase B: 10 mM NH4—Formate 0.2% formic acid:Acetonitril (5:95). Gradient run from 95/5% to 5/95% in 2.40 minutes. Flow rate 0.3 mL/min. MRM detection of test items and the added analytical standards.
Animals for the study were as described in Example 10. Additionally, rats were administered a single dose of apomorphine subcutaneously.
In total, 206 male CD rats (Charles River, Germany) weighing 200-250 grams (165-190 grams upon arrival) were used in the study. Animals were housed at a standard temperature (22±1° C.) and in a light-controlled environment (lights on from 7 am to […]) with ad libitum access to food and water. The experiment described below was performed in accordance with the standard operating procedures of Charles River Discovery Research Services Finland Ltd. and in accordance with the national Animal Experiment Board of Finland (Eläinkoelautakunta, ELLA) authority on animal testing.
The test device is a square Plexiglass-arena (measuring 40×40×40 cm), in which the movement paths of the rats are recorded by an activity monitor (Med. Associates Inc.). Before the test period is initiated, rats are habituated to their test cage for 60 minutes. Upon completion of habituation, animals were treated with either compound or vehicle and placed back into the open field apparatus. The main test parameter measured is ambulatory distance (recorded in 5-minute segments). Overall time of measurement after receiving initial treatment was 360 minutes. Total follow up period in the study was 420 min, including 60 min of habituation.

[7] = tested on: rat hepatocytes; test: Conversion of compound (Id) to compound (I) in rat hepatocytes; assay type: in vitro ADME; conditions: 1 μg/mL, 37° C., 0.25-60 minutes
Experimental: (§2) The cell concentration at incubation was 1×10^6 viable cells/mL. The incubations were performed in glass tubes at 37° C. with a total incubation volume of 3.5 mL and with duplicate incubations for each test item. The 3.5 mL of hepatocyte suspension was equilibrated for 10 minutes in a water bath set to 37° C. where after the incubations were initiated by adding 3.5 μL of a stock solution of the test item in DMSO (Dimethyl sulfoxide) and gently inverting the tubes. The final solvent concentration in the incubations was 0.1% DMSO. Samples of 600 μL were withdrawn from the incubations at the pre-determined time points of 0.25, 5, 15, 30 and 60 minutes after ensuring homogeneity of hepatocyte suspensions. The withdrawn volume was added to 1 mL Nunc cryo tubes on wet ice containing 60 μL of ice-cold ascorbic acid (100 mg/mL) and 30 μL of ice cold 100 mM saccharic acid 1,4-lactone in 0.5 M citric acid. The tubes were mixed and 35 μL of a solution of ice cold 20% formic acid was added. The tubes were mixed thoroughly and stored at −80° C. awaiting analysis.

[8] = Oral dosing of compound (Id) in minipigs; assay type: in vivo, minipig
[9] = Conversion of (Id) to (I) in fresh rat blood; assay type: in vitro ADME; conditions: 1 μg/mL, 37° C., 0-60 minutes
Experimental: as §1

[10] = tested on: human hepatocytes; test: Conversion of compound (Id) to compound (I) in human hepatocytes; assay type: in vitro ADME; conditions: 1 μg/mL, 37° C., 0.25-60 minutes
Experimental: as §2

[11] = pKa values / major species of ionization; assay type: physicochemical

CCCN1CCC[C@@H]2CC3=C(CCCC3=O)C[C@H]21 [(Ia)]
Plasma profile of compound (I) after oral dosing, in words [1]: early and high peak concentrations
5-HT2B agonist effect at single concentration ([2]; @ 30 μM, percent of control response to 1 μM 5-HT): 58% @ 30 μM

CCCN1CCC[C@@H]2Cc3c(ccc(O)c3O)C[C@H]21 [Compound (I), (4aR,10aR)-1-Propyl-1,2,3,4,4a,5,10,10a-octahydro-benzo[g]quinoline-6,7-diol]
Oral bioavailability, in words [3]: low oral bioavailability

CCCc1cc2c(s1)CN[C@@H]1CCc3cc(OC(C)=O)c(OC(C)=O)cc3[C@@H]21 [adrogolide]
Oral bioavailability [4]: ~4%

CCCN1CCC[C@@H]2Cc3c(ccc(OC(=O)C(C)(C)C)c3OC(=O)C(C)(C)C)C[C@H]21 [(Ic)]
Plasma profile of compound (I) after oral dosing, in words [1]: extremely low
5-HT2B agonist effect at single concentration ([2]; @ 10 μM): −5% @ 10 μM

CCCN1CCC[C@@H]2Cc3c(ccc4c3OCO4)C[C@H]21 [Compound (Ib)]
Plasma profile of compound (I) after oral dosing, in words [1]: early and high peak concentrations

CCCN1CCC[C@@H]2Cc3c(ccc(O)c3O[C@@H]3O[C@H](C(=O)O)[C@@H](O)[C@H](O)[C@H]3O)C[C@H]21 [Compound (Id), (2S,3S,4S,5R,6S)-3,4,5-trihydroxy-6-(((4aR,10aR)-7-hydroxy-1-propyl-1,2,3,4,4a,5,10,10a-octahydrobenzo[g]quinolin-6-yl)oxy)tetrahydro-2H-pyran-2-carboxylic acid]
Conversion to compound (I) [5]: time dependent conversion
Relationship of behavioral effect and plasma concentration ([6]; (Id) 100 μg/kg p.o. (FIG. 4), apomorphine 3 mg/kg s.c. (FIG. 5)): correlate with the plasma concentrations of compound (I)
Duration of locomotor effect, in words ([6]; (Id) 10 to 300 μg/kg p.o., recording to the 415-minute time point): lasting until the end of recording
Total distance travelled, in words ([6]; FIG. 3, (Id) 10, 30, 100 or 300 μg/kg p.o., apomorphine 3 mg/kg s.c., pramipexole 0.3 mg/kg s.c., vs vehicle): significantly increased activity
Conversion to compound (I) [7]: time dependent conversion
Plasma profile of compound (I) after oral dosing, in words [1]: slower absorption rate avoiding rapid peak concentrations accompanied by a sustained exposure
In vivo conversion to compound (I) [8]: In vivo conversion of compound (Id) to compound (I) has also been observed
Conversion to compound (I) [9]: time dependent conversion
Conversion to compound (I) [10]: time dependent conversion
pKa ([11]; anion / dianion boundary pH, read-out: pKa (third), boundary between major species of ionization): 10.1
pKa ([11]; cation / zwitterion boundary pH, read-out: pKa (first), boundary between major species of ionization): 2.8
pKa ([11]; zwitterion / anion boundary pH, read-out: pKa (second), boundary between major species of ionization): 8.8
